Laboratory results: patent US5227153A, “Use of 4-(2-oxo-3-bornylidenemethyl)benzenesulfphonic acid or its salts for the protection of hair against environmental attacking agents, and in particular against light, and process for the protection of hair using this compound” (L'Oreal, priority 1988, dated 1993)

How the values were obtained:
[1] = 15% wet extension level of bleached hair after exposure to light (SUNTEST HANAU xenon apparatus)
Description: (§1) The 15% extension level is the weight to be applied to wet hair of given length to extend it by 15%. The higher the weight, the stronger and more elastic the hair.
This composition is applied to bleached hair, then rinsed. The hair is then exposed to the Suntest by means of a "SUNTEST HANAU" apparatus for 120 hours. This apparatus consists of a xenon light emitter and a system of filters producing a radiation corresponding to a very large extend to solar radiation. The energy radiation is about 585 W/m^2 in the wavelength range between 300 and 830 nm (overall radiation).
After applying this foam to bleached hair three times and without consecutive rinsing, the hair is exposed to the Suntest as described in Example 1 for 180 hours.
Bleached hair treated with one application of this spray and not rinsed is then exposed to the Suntest under the conditions described in Example 1 for 120 hours.
Bleached hair treated with one application of this gel and not rinsed is then exposed to the Suntest under the conditions described in Example 1 for 120 hours.

[2] = Mechanical properties of hair after exposure in natural light and artificial xenon light; conditions: natural light (sunny environment) and artificial light (xenon, SUNTEST HANAU)
Description: as §1
It has been possible to reveal this property by exposure in natural light (sunny environment) and artificial light (xenon light emitter in a SUNTEST HANAU type accelerated aging apparatus).

CC12CCC(C(=Cc3ccc(S(=O)(=O)O)cc3)C1=O)C2(C)C (centres unmarked) [4-(2-oxo-3-bornylidenemethyl)benzenesulphonic acid]
improvement in the mean value of the 15% wet extension level ([1]; rinse composition with 5 g per 100 g of the acid, rinsed, Suntest 120 hours, compared to same rinse containing no acid): very significantly improved | improvement in the mean value of the 15% wet extension level ([1]; styling foam with 1.5 g per 100 g of the acid (90 g composition + 10 g propellant), applied three times, not rinsed, Suntest 180 hours, compared to same foam containing no acid): appreciable improvement | improvement in the mean value of the 15% wet extension level ([1]; styling gel with 0.4 g per 100 g of the acid, one application, not rinsed, Suntest 120 hours, compared to same gel without the acid): appreciable improvement | improvement in the mean value of the 15% wet extension level ([1]; styling spray with 1 g per 100 g of the acid, one application, not rinsed, Suntest 120 hours, compared to same spray containing no acid): significant improvement | preservation of the mechanical properties of hair from degradation by light [2]: can preserve the mechanical properties of hair
